Experimental data published in paper PMC6162693, “Investigation into the Thermal Response and Pharmacological Activity of Substituted Schiff Bases on α-Amylase and α-Glucosidase” (Antioxidants, 2018).
≈ marks a conversion by molar mass, not a printed value. Where two headings read alike, the source gives them in different places.

Assays:
Candida albicans = test: Broth microdilution antimicrobial assay, C. albicans; assay type: cell-based
Experimental: (§1) Exactly 1.5 mg of sodium;10-oxido-7-oxophenoxazin-10-ium-3-olate was dissolved in 100 mL of distilled water, vortexed, filtered, sterilised, and stored at 4 °C for a maximum of 14 days before being applied as a growth indicator. 1000 μM stock solution of Schiff bases (1–9) was prepared in DMSO.
(§2) Fungi (Aspergillus niger, Candida albicans), Gram-positive bacteria (Staphylococcus aureus, Enterococcus faecalis), and Gram-negative bacteria (Salmonella typhi, Escherichia coli).
(§3) Colonies from a 24 h culture agar plate were collected with a loop and transferred to a tube containing lysogeny broth (LB). The various suspensions were incubated at 37 °C and the size adjusted to 1.5 × 10^6 CFU/mL [27].
(§4) The antimicrobial activity of Schiff bases (1–9), was evaluated using 96-well broth microdilution method as described by de Rapper et al. (2013) and Akhalwaya et al. (2018) with slight modifications. Columns 1–11 was filled 50 µL LB, followed by the addition of 50 µL of Schiff base to column 1. Thereafter, 50 µL of Schiff bases from column 1 was transferred by multichannel pipette to columns 2–10, resulting in 50 µL Schiff bases per well. Column 11 contained 100 µL of diluted standardised inoculum, while Column 12 contained 100 µL of LB as a control to monitor sterility. Then, 50 µL of the microorganism suspension was then added to columns 1–10 and the control column 11. The plates were incubated at 37 °C for 24 h, followed by the addition of 30 µL of growth indicator solution and further incubated for 2 h for the observation of colour change. On completion of incubation, the columns with blue indicator colour were reported as the MIC (µM) values. The columns with a concentration higher than the MIC value were plated on nutrient agar to determine the minimum bactericidal and fungicidal concentrations.

H2O2-scavenging activity = details: absorbance at 230 nm; mean ± SD (n = 3)
Experimental: (§5) The antioxidant activities of Schiff bases (1–9) were determined by DPPH, ABTS^+, H2O2, ferric reducing power assays, and compared with 3,4,5-trihydroxybenzoic acid (10), 5-(1,2-dihydroxyethyl)-3,4-dihydroxyfuran-2(5H)-one (11), and 2-(3,4-dihydroxyphenyl)-3,5,7-trihydroxy-4H-chromen-4-one (12) (as controls).
According to the methods of Ruch et al., the H2O2 scavenging activity of compounds (1–12) was evaluated. To 100 µL aliquot of the test compounds was added 0.4 mL of 50 mM phosphate buffer followed by 0.6 mL of 2 mM H2O2 solution prepared in 50 mM phosphate buffer (pH 6.8). The absorbance of the mixture was measured at 230 nm, thereafter, the %H2O2 scavenging activity (Equation (4)) and IC50 (μM) of the compounds 1–12 was determined. All analyses were carried out in triplicate. (4) % H2O2 − scavenging activity = 100⌊(Abs. of H2O2 − Abs. of test compound)/(Abs. of H2O2)⌋

α-amylase = test: α-Amylase inhibitory activity; assay type: biochemical; details: Means ×10^2 ± SD from at least three experiments
Experimental: The α-amylase inhibitory activity of Schiff bases (1–9) was evaluated by the method reported by Xiao et al. with slight modifications. Substrate solution is prepared by dissolving 1.0 g of starch in 50 mL of 0.4 M NaOH and heated at 100 °C for 5 min. The substrate solution was adjusted to a neutral pH by the addition of 0.1 M HCl, cooled on crushed ice and made to 100 mL in a standard volumetric flask with distilled water. […] Using a microplate, 40 μL substrate and 20 μL Schiff base solution were mixed, then preincubated at 37 °C for 3 min. Thereafter, 20 μL of 50 μg/mL α-amylase solution was dispensed into each well, and further incubated for 15 min. The reaction was terminated by the addition of 80 μL HCl (0.1 M); followed by 200 μL of 1 mM iodine solution, and the absorbances measured at 650 nm. Inhibitory activity was calculated from Equation (5):(5) α − amylase inhibition (%) = (A2 − A1/A4 − A3)100 where A1 is the absorbance of Schiff base, starch, and α-amylase solution after incubation, A2 is the absorbance of Schiff base and starch solution after incubation, A3 is the absorbance of starch and amylase solution after incubation, and A4 is the absorbance of a starch solution after incubation. Thereafter, the IC50 value was determined from the plot of % inhibition versus concentration.

Staphylococcus aureus = test: Broth microdilution antimicrobial assay, S. aureus; assay type: cell-based; details: Staphylococcus aureus, read-out: MBC S. aureus
Experimental: as §1, §2, §3, §4

α-glucosidase = test: α-Glucosidase inhibitory activity; assay type: biochemical; details: Means ×10^2 ± SD from at least three experiments
Experimental: The inhibitory activity of Schiff bases (1-9) against α-glucosidase was assessed by the method previously described by […] et al. […] Then, approximately 0.2 mL of Schiff base solution was mixed with 1.0 mL of 50 mM sodium phosphate buffer (pH 6.9) and 50 μL of α-glucosidase solution (2 U/mL). Thereafter, incubated at 37 °C for 10 min, followed by the addition of exactly 50 μL of 0.7 mM p-nitrophenyl-α-D-glucopyranoside solution in 50 mM sodium phosphate buffer (pH 6.9) and further incubated for 30 min at 37 °C. The reaction was terminated by the addition of 2.0 mL solution of 0.5 M Na2CO3. 0.3 mL aliquot of the above mixture was mixed with 4.7 mL of distilled water and the absorbance measured at 405 nm. […] (6) α - glucosidase inhibition (%) = (Ae - ASB/Ae)100 where Ae is the absorbance of the enzyme solution after incubation and ASB is the absorbance after incubation of Schiff bases solution. The assay was performed in triplicate.

Aspergillus niger = test: Broth microdilution antimicrobial assay, A. niger; assay type: cell-based
Experimental: as §1, §2, §3, §4

[1] = ABTS radical cation decolourisation assay; details: absorbance at 734 nm, 30 min; mean ± SD (n = 3)
Experimental: as §5
A mixture of ABTS (960.2 mg) and potassium persulphate (165.6 mg) was dissolved in 250 mL of distilled water to generate the blue-green ABTS^+ solution. The ABTS solution was stored away in the dark at ambient temperature for 24 h to generate sufficient ABTS radical cation (ABTS^+), then the absorbance was adjusted to 0.9547 with distilled water. Precisely 40 µL solution of the compounds were added to 3 mL ABTS^+ solution and incubated at 298 K for 30 min in the dark. Changes in concentration of ABTS^+ were measured at 734 nm on a spectrophotometer. The degree of ABTS^+ decolourisation was a template for evaluating the percentage proton-donating potential (%PDP) of the test compounds [24]; estimated from Equation (3). The IC50 (μM) of the compounds were determined by linear regression analysis, and all analyses were carried out in triplicate. (3) % PDP = 100⌊(Abs. of ABTS ^+ − Abs. of test compound)/(Abs. of ABTS^+)⌋

Enterococcus faecalis = test: Broth microdilution antimicrobial assay, E. faecalis; assay type: cell-based; details: Enterococcus faecalis, read-out: MBC E. faecalis
Experimental: as §1, §2, §3, §4

Escherichia coli = test: Broth microdilution antimicrobial assay, E. coli; assay type: cell-based; details: Escherichia coli, read-out: MBC E. coli
Experimental: as §1, §2, §3, §4

[2] = DPPH radical scavenging activity; details: absorbance at 517 nm, 30 min; mean ± SD (n = 3)
Experimental: as §5
The scavenging activity of compounds (1–12) was evaluated by adding an ethanolic solution of DPPH (300 μL, 0.05 mM) and incubated for 30 min in the dark. After that, changes in the absorbance of the mixture were measured at 517 nm on a UV-Vis spectrophotometer. The percentage radical scavenging activities (%RSA) and half maximal inhibitory concentration (IC50) of the compounds were estimated from Equation (2) and by linear regression analysis, respectively. All studies were carried out in triplicate. (2) % RSA= 100⌊(Abs. of DPPH − Abs. of test compound)/(Abs. of DPPH)⌋

Salmonella typhi = test: Broth microdilution antimicrobial assay, S. typhi; assay type: cell-based; details: for MBC: Salmonella enterica, TYPHI, read-out: MBC S. typhi
Experimental: as §1, §2, §3, §4

[3] = system: Fungi (Aspergillus niger, Candida albicans); test: Broth microdilution MIC, antifungal (fungus not specified); assay type: cell-based; details: read-out: MIC (antifungal)
Experimental: as §1, §2, §3
The antimicrobial activity of Schiff bases (1–9), was evaluated using 96-well broth microdilution method as described by de Rapper et al. (2013) and Akhalwaya et al. (2018) with slight modifications. Columns 1–11 was filled 50 µL LB, followed by the addition of 50 µL of Schiff base to column 1. Thereafter, 50 µL of Schiff bases from column 1 was transferred by multichannel pipette to columns 2–10, resulting in 50 µL Schiff bases per well. Column 11 contained 100 µL of diluted standardised inoculum, while Column 12 contained 100 µL of LB as a control to monitor sterility. Then, 50 µL of the microorganism suspension was then added to columns 1–10 and the control column 11. […]

| Compound | MFC (Candida albicans; read-out: MFC C. albicans) | IC50 (H2O2-scavenging activity) | IC50 (α-amylase) | MBC (Staphylococcus aureus) | IC50 (α-glucosidase) | MFC (Aspergillus niger; read-out: MFC A. niger) | IC50 [1] | MBC (Enterococcus faecalis) | MBC (Escherichia coli) | IC50 [2] | MBC (Salmonella typhi) | melting point | also measured |
| --- | --- | --- | --- | --- | --- | --- | --- | --- | --- | --- | --- | --- | --- |
| Oc1cc(N=Cc2ccccc2O)n[nH]1 [Compound 2, 3-(((2-hydroxyphenyl)methylidene)amino)-1H-pyrazol-5-ol] | > 4.31 µM | 410 ± 6 µM | 91 ± 9 µM | 4.31 µM (≈ 0.876 µg/mL) | 120 ± 51 µM | > 4.31 µM | 510 ± 5 µM | > 4.31 µM | 4.31 µM (≈ 0.876 µg/mL) | 390 ± 5 µM | > 4.31 µM | 370 °C | – |
| Oc1cc(N=Cc2ccccc2)n[nH]1 [Compound 3, 3-((phenylmethylidene)amino)-1H-pyrazol-5-ol] | > 5.35 µM | 410 ± 8 µM | 200 ± 74 µM | > 5.35 µM | 560 ± 82 µM | > 5.35 µM | 450 ± 7 µM | > 5.35 µM | 2.67 µM (≈ 0.5 µg/mL) | 360 ± 5 µM | > 5.35 µM | 266 °C | MIC [3]: 0.67 µM (≈ 0.125 µg/mL) |
| O=[N+]([O-])c1ccc(C=Nc2ccc(O)cc2)cc1 [Compound 4, 4-(((4-nitrophenyl)methylidene)amino)phenol] | – | 370 ± 7 µM | 1380 ± 17 µM | – | 1390 ± 91 µM | – | 370 ± 6 µM | – | 2.07 µM (≈ 0.501 µg/mL) | 290 ± 6 µM | – | 202 °C | MFC (Candida albicans; 24 h, read-out: MFC C. albicans): > 4.31 µM; MBC (Staphylococcus aureus; 24 h, * = no bactericidal effect at the evaluated concentration, n = 3): 4.31 µM (≈ 1.04 µg/mL); MFC (Aspergillus niger; 24 h, read-out: MFC A. niger): > 4.31 µM; MBC (Enterococcus faecalis; 24 h): > 4.31 µM; MBC (Salmonella typhi; 24 h): > 4.31 µM |
| Oc1ccc(N=Cc2ccccc2O)cc1 [Compound 5, 4-(2-hydroxybenzylideneamino)phenol] | > 4.69 µM | 320 ± 6 µM | – | > 4.69 µM | 1380 ± 1250 µM | > 4.69 µM | 110 ± 5 µM | – | – | 260 ± 5 µM | > 4.69 µM | – | MBC (Enterococcus faecalis; * = no bactericidal effect at the evaluated concentration, n = 3): 4.69 µM (≈ 1 µg/mL); MBC (Escherichia coli; n = 3): 4.69 µM (≈ 1 µg/mL) |
| Oc1ccc(N=Cc2ccccc2)cc1 [Compound 6, 4-(benzylideneamino)phenol] | > 5.07 µM | 380 ± 5 µM | 1410 ± 17 µM | > 5.07 µM | 1420 ± 1730 µM | > 5.07 µM | 260 ± 6 µM | > 5.07 µM | – | 380 ± 2 µM | > 5.07 µM | 302 °C | MBC (Escherichia coli; n = 3): 2.54 µM (≈ 0.501 µg/mL) |
| O=S(=O)(O)c1cc(O)c(N=Cc2ccccc2O)c2ccccc12 [Compound 8, 4-(2-hydroxybenzylideneamino)-3-hydroxynaphthalene-1-sulphonic acid] | 1.46 µM (≈ 0.501 µg/mL) | 240 ± 17 µM | 420 ± 34 µM | > 2.92 µM | 500 ± 82 µM | 1.46 µM (≈ 0.501 µg/mL) | 140 ± 5 µM | > 2.92 µM | 1.46 µM (≈ 0.501 µg/mL) | 210 ± 5 µM | > 2.92 µM | 296 °C | antibacterial activity (growth inhibition), S. typhi (Salmonella typhi): inhibited only the growth of S. typhi |
| O=S(=O)(O)c1cc(O)c(N=Cc2ccccc2)c2ccccc12 [Compound 9, 4-(benzylideneamino)-3-hydroxynaphthalene-1-sulphonic acid] | – | 190 ± 11 µM | 561 ± 42 µM | > 3.06 µM | 660 ± 97 µM | – | 50 ± 4 µM | > 3.06 µM | 3.06 µM (≈ 1 µg/mL) | 220 ± 6 µM | > 3.06 µM | 246 °C | MFC (Candida albicans; * = no fungicidal effect at the evaluated concentration, n = 3, read-out: MFC C. albicans): 1.53 µM (≈ 0.501 µg/mL); MFC (Aspergillus niger; * = no fungicidal effect at the evaluated concentration, n = 3, read-out: MFC A. niger): 1.53 µM (≈ 0.501 µg/mL) |
| O=C(O)c1cc(O)c(O)c(O)c1 [Compound 10, 3,4,5-trihydroxybenzoic acid, reference compound] | – | 460 ± 11 µM | – | – | – | – | 580 ± 7 µM | – | – | 420 ± 3 µM | – | – | – |
| O=C1OC(C(O)CO)C(O)=C1O (stereo not drawn) [Compound 11, 5-(1,2-dihydroxyethyl)-3,4-dihydroxyfuran-2(5H)-one, reference compound] | – | 440 ± 7 µM | – | – | – | – | 530 ± 6 µM | – | – | 350 ± 5 µM | – | – | – |
| O=c1c(O)c(-c2ccc(O)c(O)c2)oc2cc(O)cc(O)c12 [Compound 12, 2-(3,4-dihydroxyphenyl)-3,5,7-trihydroxy-4H-chromen-4-one, reference compound] | – | 270 ± 10 µM | – | – | – | – | 270 ± 8 µM | – | – | 240 ± 3 µM | – | – | – |
